Experimental data as given in paper PMC8151276, “An Integrated Approach toward NanoBRET Tracers for Analysis of GPCR Ligand Engagement” (Molecules, 2021).

Legend:
[1] = tested on: 184 HiBiT-GPCRs from 51 families; assay: NanoBRET screen, binding profile across the HiBiT-GPCR library; set-up: species or system human; settings: screen at 1 μM and 0.1 μM tracer
Procedure: Each tracer candidate was screened across the entire library of HiBiT-GPCR constructs using NanoBRET as the detection modality. As depicted in Figure 4A, the specificity of interactions was evaluated through decrease in BRET due to competitive displacement of a bound tracer by excess parental compound. Each tracer was analyzed for binding to each HiBiT-GPCR fusion in the absence and in the presence of competing parental compound. Briefly, HEK293 cells were transfected with HiBiT-GPCR constructs diluted into promoterless DNA to reduce expression and maximize translocation to the cell surface. Each tracer candidate was then screened at concentrations of 1 μM and 0.1 μM across cells expressing these fusions. Cells were treated for 1.5 h with tracer either alone or in the presence of 20 μM competing parental compound (i.e., control). BRET was measured upon addition of purified LgBiT and subsequent complementation with HiBiT genetically fused to a GPCR. The specificity of interactions was assessed through a decrease in BRET signal due to competitive displacement of the bound tracer. To further gauge the robustness of these interactions, the fold response over the control (i.e., BRETtracer/BRETcontrol) was calculated. We chose a 1.5-fold response, which translates to ≥7-fold signal over noise as the minimal threshold required to score an interaction as positive. […]. […]

HiBiT-GPCRs = assay: NanoBRET saturation ligand-engagement assay in HEK293; type: binding, human
Description: Metabotropic GRM1 glutamate receptor, metabotropic 1 glutamate GRM2 glutamate receptor, metabotropic 2
GRM3 glutamate receptor, metabotropic 3
GRM4 glutamate receptor, metabotropic 4
GRM5 glutamate receptor, metabotropic 5
GRM7 glutamate receptor, metabotropic 7
GRM8 glutamate receptor, metabotropic 8
Glucagon ADCYAP1R1 adenylate cyclase activating polypeptide 1
(pituitary) receptor type I
Lutropin- LHCGR luteinizing hormone/choriogonadotropin choriogonadotropin receptor
Cysteinyl leukotriene CYSLTR1 cysteinyl leukotriene receptor 1
CYSLTR2 cysteinyl leukotriene receptor 2
Cell culture and transfection
HEK293 cells were obtained from American Type Culture Collection (ATCC) and cultured at 37 °C/5% CO2 in Dulbecco's Modified Eagle Medium (DMEM) (Gibco) supplemented with 10% fetal bovine serum (Seradigm) and 100 units/mL of penicillin-streptomycin (Gibco). Transfections were carried out using Viafect (Promega) at a 1:3 DNA/transfection reagent ratio. Generally, DNA encoding HiBiT-GPCR fusion was diluted 1:100 in promoterless carrier DNA. […]
in the presence of 30 μM competing unmodified compound for 90 min at room temperature. […] Filtered luminescence was then measured using GloMax Discover microplate reader (Promega) equipped with a 450-nm (8-nm band pass) filter (donor) and a 600-nm long pass filter (acceptor). BRET was calculated by dividing the acceptor emission by the donor emission. […]

Question: Which “Number of GPCRs with specific interactions (≥[…] response)” value [1] does the source give for `CN(CCC=C1c2ccccc2CCc2ccccc21)C(=O)CCOCCOCCOCCOCCNC(=O)CCc1ccc2n1[B-](F)(F)[N+]1=C(c3ccc[nH]3)C=CC1=C2` [Amitriptyline-e-2-NB590] here?
Answer: no specific interactions

Question: `O=C(CCOCCOCCOCCOCCNC(=O)CCc1ccc2n1[B-](F)(F)[N+]1=C(c3ccc[nH]3)C=CC1=C2)NCCCN1CCN(C2=Nc3cc(Cl)ccc3Nc3ccccc32)CC1` [Clozapine-a-2-NB590] was tested. Which Concentration-dependent binding (HiBiT-GPCRs; ADRA2A and HTR1D, competing Clozapine (30 μM)) did it give?
Answer: specific but suffered from high background

Question: And the EC50 (HiBiT-GPCRs; range over 17 of the 19 GPCRs, background corrected with competing Clozapine (30 μM), read-out: EC50 values (concentration-dependent tracer binding))?
Answer: 1 to 600 nM
